Some test systems named below: DMS 114 small cell lung; HOP-18 NSCLC; LXFL 529 NSCLC; XF 498 CNS; DLD-1 colon; HS 578T breast; MCF7 breast; MDA-MB-231 breast; NCI/ADR-RES ovarian; T-47D breast.
Holding throughout (experiment): DTP human tumour cell line panel, 48 h

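Cells were grown in 96-well plates and exposed to each compound for 48 hours at five concentrations; endpoints were interpolated linearly between bracketing concentrations, or set to the highest concentration if not reached. The concentration for full growth arrest is given as TGI.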

Turning to `C=CCNC(=O)N(CCC)CCCC(NC(C)=O)C(=O)NCc1ccccc1` (stereo unspecified), the TGI in the assay with DMS 114 small cell lung, in the assay on HOP-18 NSCLC, in the assay on LXFL 529 NSCLC and in the assay on XF 498 CNS was greater than 100 µM throughout.

In the case of `CCCCCCCCCCCCCCCCCCOCC(COCCOCC[N+]1(CCCCCC(=O)[O-])CCCC1)Oc1ncccn1` (stereo unspecified), the TGI in the assay on DLD-1 colon worked out at 14 µM; in the assay with DMS 114 small cell lung it was 7.1 µM; with HOP-18 NSCLC, 13.7 µM; in the assay with HS 578T breast, 28.8 µM; in the assay on MCF7 breast, 16.1 µM; in the assay with MDA-MB-231 breast, 21.7 µM. Moreover, the TGI is 24.1 µM in the assay on NCI/ADR-RES ovarian, 21.2 µM in the assay on T-47D breast and 9.46 µM in the assay on XF 498 CNS.

For the molecule `CCOC(OC1=C(C#N)CCCC1)C(CC)[Se]c1ccccc1` (stereo unspecified), the TGI with DLD-1 colon was determined as 34.4 µM; with DMS 114 small cell lung it was 15.4 µM; in the assay with HOP-18 NSCLC, 54.1 µM; with LXFL 529 NSCLC, 65.9 µM; in the assay on XF 498 CNS, 46.5 µM.

Turning to `C[C@]12C/C(=C/O)C(=O)C(O)=C1CC[C@@H]1C2CC[C@@]2(C)C1CC[C@@H]2O` (stereo partly specified), the TGI in the assay on DMS 114 small cell lung was 37.5 µM; in the assay on HOP-18 NSCLC, greater than 100 µM; in the assay on LXFL 529 NSCLC, 31.7 µM; with XF 498 CNS it was 33 µM.

With `O=C1[C@H]2ON(c3ccccc3)C(c3ccco3)[C@H]2C(=O)N1c1ccc(Cc2ccc(N3C(=O)[C@@H]4ON(c5ccccc5)C(c5ccco5)[C@@H]4C3=O)cc2)cc1` (stereo partly specified), the TGI in the assay with DLD-1 colon, in the assay with DMS 114 small cell lung, in the assay with HOP-18 NSCLC, with LXFL 529 NSCLC and in the assay on XF 498 CNS was greater than 100 µM throughout.

As to `CCOC(=O)C1(Cc2ccc3ccccc3c2)CCCCC(=O)N1` (stereo unspecified), the TGI in the assay with DLD-1 colon is greater than 100 µM; in the assay with DMS 114 small cell lung, 72.9 µM; in the assay on HOP-18 NSCLC, greater than 100 µM; in the assay on LXFL 529 NSCLC, greater than 100 µM; in the assay on XF 498 CNS, greater than 100 µM.

With `C=C1C(=O)C23C(O)C1CC[C@H]2C12CCCC(C)(COC(C)=O)[C@H]1[C@H](O)[C@]3(O)OC2` (stereo partly specified), the TGI with DLD-1 colon is 1.7 µM; with DMS 114 small cell lung, 4.35 µM; in the assay with HOP-18 NSCLC it was 2.54 µM; with HS 578T breast, 9.99 µM; with LXFL 529 NSCLC, 1.69 µM; in the assay on T-47D breast, 9.59 µM. The same molecule registered a TGI in the assay on XF 498 CNS of 2.71 µM.

As for `Nc1ccccc1C(=O)C(Br)C(Br)c1ccc2c(c1)OCO2` (stereo unspecified), the TGI in the assay on DLD-1 colon is greater than 100 µM; with DMS 114 small cell lung, 40.2 µM; in the assay on HOP-18 NSCLC it was 44.4 µM; in the assay on LXFL 529 NSCLC, 46 µM; in the assay on XF 498 CNS, 34 µM.

As to `COc1ccccc1NC(=O)/C(=C/c1ccccc1)C(C)=O`, the TGI was greater than 100 µM with DLD-1 colon; greater than 100 µM in the assay on DMS 114 small cell lung; greater than 100 µM in the assay on HOP-18 NSCLC; greater than 100 µM in the assay on LXFL 529 NSCLC; 89.5 µM in the assay on XF 498 CNS.

`CCCCCCC(C)CCCCCCCCCCC(=O)O` (stereo unspecified): the TGI in the assay on DLD-1 colon, in the assay with DMS 114 small cell lung, with HOP-18 NSCLC, in the assay on LXFL 529 NSCLC and in the assay with XF 498 CNS was greater than 100 µM each time.

In the case of `COc1cc(C2c3cc4c(cc3[C@@H](Nc3ccc5c(c3)OCCO5)C3COC(=O)[C@H]23)OCO4)cc(OC)c1O` (stereo partly specified), the concentration for total growth inhibition (TGI) with DLD-1 colon is 5.17 µM; in the assay on DMS 114 small cell lung, 3.42 µM; in the assay with HOP-18 NSCLC, greater than 100 µM; in the assay with LXFL 529 NSCLC it was greater than 100 µM; with MCF7 breast, greater than 100 µM; in the assay on MDA-MB-231 breast, greater than 100 µM. Also, the TGI is greater than 100 µM with NCI/ADR-RES ovarian and 5.89 µM in the assay with XF 498 CNS.

Take `Cn1c(=O)nc2n(-c3ccc(Cl)c(C(F)(F)F)c3)c3ccccc3nc-2c1=O`: the TGI with DLD-1 colon is greater than 100 µM; with DMS 114 small cell lung, 40.6 µM; in the assay with HOP-18 NSCLC, greater than 100 µM; in the assay with LXFL 529 NSCLC it was greater than 100 µM; with XF 498 CNS it was greater than 78.1 µM.

As for `O=S1CSSC1`, the TGI in the assay on DLD-1 colon is 43.1 µM; in the assay with DMS 114 small cell lung it was 19.1 µM; in the assay with HOP-18 NSCLC, greater than 100 µM; in the assay on LXFL 529 NSCLC, 32.4 µM; in the assay on XF 498 CNS, 50.1 µM.

Regarding `O=C(CC1(O)C(=O)Nc2c(Cl)ccc(Cl)c21)c1ccc(Cl)cc1Cl` (stereo unspecified), the TGI with DLD-1 colon is greater than 100 µM; with DMS 114 small cell lung, 37.4 µM; with HOP-18 NSCLC, greater than 100 µM; in the assay on LXFL 529 NSCLC it was 29.3 µM; in the assay on XF 498 CNS, 33.9 µM.

`O=C1C2=C(CCC2)Nc2cccc3ncn1c23`: the TGI in the assay with DLD-1 colon is greater than 100 µM; in the assay on DMS 114 small cell lung it was greater than 100 µM; with HOP-18 NSCLC, 64.2 µM; in the assay with LXFL 529 NSCLC, greater than 100 µM; in the assay with XF 498 CNS, greater than 100 µM.

Regarding `CCCCCCCCCCCC1CC(=O)NCCCN(C)CCCCN(C)CCCN1C` (stereo unspecified), the total growth inhibition concentration (TGI) with DLD-1 colon is 3 µM; in the assay on DMS 114 small cell lung, 3.19 µM; in the assay on HOP-18 NSCLC it was 3.17 µM; in the assay with LXFL 529 NSCLC, 3.16 µM; in the assay with XF 498 CNS, 3.08 µM.

For the molecule `COc1ccc2[nH]c(-c3ccc(O)cc3)cc(=O)c2c1`, the TGI in the assay on DLD-1 colon was greater than 100 µM; in the assay on DMS 114 small cell lung, 1.49 µM; in the assay with HOP-18 NSCLC, greater than 29.9 µM; in the assay with HS 578T breast, greater than 100 µM; in the assay on LXFL 529 NSCLC, greater than 100 µM; with MCF7 breast, greater than 100 µM. Also, the TGI is greater than 100 µM with MDA-MB-231 breast, 79.6 µM with T-47D breast and 13.7 µM in the assay on XF 498 CNS.
